In US20060058312A1, “Stabilized aqueous preparation for injection” (priority 2004, published 2006):
Read-outs that look alike come from different tables or passages of the source.

Assays:
[1] = Stability test at 60° C., addition amount of ascorbic acid at pH 8.1 (Example 4), HPLC content; assay type: physicochemical; conditions: for remaining calcium levofolinate content compared with the initial value (100): 60° C.
Protocol: (§1) For the aqueous preparations obtained in (1) to (3) above, tests evaluating stability at 60° C./3 weeks were performed. The calcium levofolinate content remaining in the aqueous solution was measured using high performance liquid chromatography under the following conditions (the same were employed in the following experiments) 2 ml each of the test preparations were weighed, and 10 ml of the internal standard solution described below (the same was employed in the following experiments) were added thereto. Subsequently, water was added to adjust the total volume of the solution to 50 ml, thereby to prepare a test solution. Meanwhile, 62.5 mg of calcium levofolinate were dissolved in water so as to prepare a 25 ml solution. Then, to 10 ml of the resultant solution were added 10 ml of the internal standard solution, and the total volume of the solution was adjusted to 50 ml by adding water, thereby to prepare a standard solution. For 20 μl of the standard solution and the test solution, the content of calcium levofolinate was measured by the liquid chromatography method under the following conditions.
(§2) 1) Measurement Conditions • Detector: Ultraviolet absorptiometer (Measurement wavelength: 254 nm) • Column: A stainless tube having an internal diameter of 4.0 mm and a length of 15 cm was filled with 5 μm of octadecylsilylated silica gel for liquid chromatography. • Column temperature: A constant temperature near 45° C. • Mobile phase: The pH value of a mixed test solution containing 0.008 mol/L of disodium hydrogen phosphate solution/methanol/40% aqueous tetrabutylammonium hydroxide solution (385:110:1.3 (volume ratio)) was adjusted to 7.5 by adding phosphoric acid. • Flow rate: The flow rate was regulated so that the retention time of calcium levofolinate became about 10 minutes. • Internal standard solution: A solution prepared by adding water to 0.04 g of methyl parahydroxybenzoate so that the whole amount of solution is 100 ml.
About 80 ml of water for injection were added to a beaker (volume: 200 ml). Then 0.56 g of sodium chloride, 0.3 g of tromethamine, and 1.375 g of calcium levofolinate (1.1 g, in terms of 5-formyl-(6S)-tetrahydrofolic acid) were added to it with bubbling of nitrogen gas, and the components were dissolved with stirring (this procedure was performed […]). Subsequently, 0 (no addition), 0.05 g, 0.1 g, 0.3 g, 0.5 g or 1.0 g of ascorbic acid was added to each solution, and was dissolved with stirring, to prepare six solutions. Thereafter, in the case where the addition amount of ascorbic acid is 0 (no addition), 0.05 g, or 0.1 g, the pH value of each solution was adjusted to 8.1 by adding 5% hydrochloric acid dropwise. In the case where the addition amount of ascorbic acid is 0.3 g, 0.5 g, or 1.0 g, the pH value of each solution was adjusted to 8.1 by adding 1% aqueous sodium hydroxide solution dropwise. Water for injection was further added to each solution to adjust the total volume of the solution to 100 ml. Subsequently, the bubbling of nitrogen gas was stopped, and each solution was filtered with a filtration filter, thereby to yield a solution for injection. Subsequently, each of five 5 ml-glass ampules the inside space of which had been substituted by nitrogen gas, was filled with 5 ml of the resultant solution for injection, and it was sealed by heating.
For each aqueous preparation obtained as above, a test evaluating stability at 60° C. was performed by measuring the remaining calcium levofolinate content by the high performance liquid chromatography method.

[2] = assay type: physicochemical; conditions: buffer, 13 mg/mL, pH 6.2
Protocol: as §1, §2
About 1100 ml of water for injection were added to a beaker. Then, 8.04 g of sodium chloride, 3.6 g of tromethamine, and 1.2 g of ascorbic acid were added thereto with bubbling of nitrogen gas, and the components were dissolved with stirring. To the resultant solution were added 15.62 g of calcium levofolinate, which was dissolved with stirring. Thereafter, the pH value of the solution was adjusted to 6.2 by adding 5% hydrochloric acid solution dropwise. Water for injection was further added to the solution to adjust the total volume to 1200 ml. Subsequently, the bubbling of nitrogen gas was stopped, and the solution was filtered with a filtration filter, thereby to yield a solution for injection. A 5 ml-syringe made of polypropylene, the inside space of which had been substituted by nitrogen gas, was filled with 5 ml of the resultant solution for injection, followed by steam sterilization under high pressure at 105° C. for 30 minutes. The thus-sterilized syringe was packaged together with a deoxidant, AGELESS ZP-50 (trade name, Mitsubishi Gas Chemical Company, Inc. Japan) by using a plastic film with high air impermeability.
For an aqueous preparation as obtained above, a stability test (60° C./75% RH, and 40° C./75% RH) was performed by measuring the content of calcium levofolinate remaining after storage for a certain period by the high performance liquid chromatography method.

remaining calcium levofolinate content compared with the initial value (100) ([1]; ascorbic acid 0% (No addition), 1 month): 79.7
remaining calcium levofolinate content compared with the initial value (100) ([1]; ascorbic acid 0% (No addition), 1 week): 94.1
remaining calcium levofolinate content compared with the initial value (100) ([1]; ascorbic acid 0% (No addition), 2 weeks): 88.7
remaining calcium levofolinate content compared with the initial value (100) ([1]; ascorbic acid 0% (No addition), 3 weeks): 86.0
calcium levofolinate content, Initial value (100) ([1]; ascorbic acid 0% (No addition)): 100
remaining calcium levofolinate content compared with the initial value (100) ([1]; ascorbic acid 0.05%, 1 month): 82.6
remaining calcium levofolinate content compared with the initial value (100) ([1]; ascorbic acid 0.05%, 1 week): 96.4
remaining calcium levofolinate content compared with the initial value (100) ([1]; ascorbic acid 0.05%, 2 weeks): 92.4
remaining calcium levofolinate content compared with the initial value (100) ([1]; ascorbic acid 0.05%, 3 weeks): 87.3
calcium levofolinate content, Initial value (100) ([1]; ascorbic acid 0.05%): 100
remaining calcium levofolinate content compared with the initial value (100) ([1]; ascorbic acid 0.1%, 1 month): 82.2
remaining calcium levofolinate content compared with the initial value (100) ([1]; ascorbic acid 0.1%, 1 week): 97.4
remaining calcium levofolinate content compared with the initial value (100) ([1]; ascorbic acid 0.1%, 2 weeks): 93.1
remaining calcium levofolinate content compared with the initial value (100) ([1]; ascorbic acid 0.1%, 3 weeks): 87.7
calcium levofolinate content, Initial value (100) ([1]; ascorbic acid 0.1%): 100
remaining calcium levofolinate content compared with the initial value (100) ([1]; ascorbic acid 0.3%, 1 month): 81.6
remaining calcium levofolinate content compared with the initial value (100) ([1]; ascorbic acid 0.3%, 1 week): 96.3
remaining calcium levofolinate content compared with the initial value (100) ([1]; ascorbic acid 0.3%, 2 weeks): 91.3
remaining calcium levofolinate content compared with the initial value (100) ([1]; ascorbic acid 0.3%, 3 weeks): 86.9
calcium levofolinate content, Initial value (100) ([1]; ascorbic acid 0.3%): 100
remaining calcium levofolinate content compared with the initial value (100) ([1]; ascorbic acid 0.5%, 1 month): 80.9
remaining calcium levofolinate content compared with the initial value (100) ([1]; ascorbic acid 0.5%, 1 week): 96.5
remaining calcium levofolinate content compared with the initial value (100) ([1]; ascorbic acid 0.5%, 2 weeks): 90.9
remaining calcium levofolinate content compared with the initial value (100) ([1]; ascorbic acid 0.5%, 3 weeks): 86.0
calcium levofolinate content, Initial value (100) ([1]; ascorbic acid 0.5%): 100
remaining calcium levofolinate content compared with the initial value (100) ([1]; ascorbic acid 1.0%, 1 month): 80.3
remaining calcium levofolinate content compared with the initial value (100) ([1]; ascorbic acid 1.0%, 1 week): 95.4
remaining calcium levofolinate content compared with the initial value (100) ([1]; ascorbic acid 1.0%, 2 weeks): 89.8
remaining calcium levofolinate content compared with the initial value (100) ([1]; ascorbic acid 1.0%, 3 weeks): 84.1
calcium levofolinate content, Initial value (100) ([1]; ascorbic acid 1.0%): 100
remaining ratio (%) of calcium levofolinate ([2]; 0 months): 100%
remaining ratio (%) of calcium levofolinate ([2]; 0 weeks): 100%
remaining ratio (%) of calcium levofolinate ([2]; 1 month): 99.8%
remaining ratio (%) of calcium levofolinate ([2]; 2 months): 98.8%
remaining ratio (%) of calcium levofolinate ([2]; 4 months): 96.6%
remaining ratio (%) of calcium levofolinate ([2]; 6 months): 91.8%
remaining ratio (%) of calcium levofolinate ([2]; 168 h): 96.6%
remaining ratio (%) of calcium levofolinate ([2]; 336 h): 96.2%
remaining ratio (%) of calcium levofolinate ([2]; 504 h): 95.3%
remaining ratio (%) of calcium levofolinate ([2]; 672 h): 94.4%
SMILES: Nc1nc(=O)c2c([nH]1)NC[C@H](CNc1ccc(C(=O)N[C@@H](CCC(=O)O)C(=O)O)cc1)N2C=O [calcium levofolinate, (6S)-N-[4-[[(2-amino-5-formyl-1,4,5,6,7,8-hexahydro-4-oxo-6-pteridinyl)methyl]amino]benzoyl]-L-glutamic acid]
